In publication PMC3227451, “Structure-based development of novel sirtuin inhibitors” (Aging (Albany NY), 2011):

How the values were obtained:
Sirt6 = biological target: T1, Sirt6 (Homo sapiens, UniProt Q8N6T7); assay: Fluor-de-Lys peptide deacetylation assay, Sirt6; assay type: biochemical
T1 construct: Sirt6 residues 13-308; His-tag with linker comprising a TEV protease cleavage site (N, cleaved yes); made in house; host or cells: E. coli Rosetta2
Method in brief: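 Fluor-de-Lys kit run with FdL-1 peptide RHK(acetyl-K), 0.1 mM, plus 0.5 mM NAD+. Compounds at 100 μM final, 30 min at 37 °C, then trypsin developer for 45 min at room temperature.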

Sirt5 = biological target: T2, Sirt5 (Homo sapiens, UniProt Q9NXA8); assay: Fluor-de-Lys peptide deacetylation assay, Sirt5; assay type: biochemical
T2 construct: Sirt5 residues 34-302; His-tag with linker comprising a TEV protease cleavage site (N); made in house
T2 sequence (Q9NXA8 34-302): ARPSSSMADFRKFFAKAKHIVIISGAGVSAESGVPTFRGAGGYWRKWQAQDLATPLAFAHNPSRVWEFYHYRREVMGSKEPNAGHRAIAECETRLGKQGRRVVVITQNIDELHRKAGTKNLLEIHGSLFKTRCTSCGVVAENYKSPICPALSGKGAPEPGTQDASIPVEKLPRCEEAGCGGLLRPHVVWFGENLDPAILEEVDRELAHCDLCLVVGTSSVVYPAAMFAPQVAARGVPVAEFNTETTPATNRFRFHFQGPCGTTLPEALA
Method in brief: (§1)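 E. coli-expressed human Sirtuins with 0.5 mM NAD+ and 0.1 mM Fluor-de-Lys peptide: FdL-2 (QPK(acetyl-K)) for Sirt3, FdL-1 (RHK(acetyl-K)) for Sirt5. Compounds at 100 μM final; 30 min at 37 °C, then trypsin developer for 45 min at room temperature.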

Sirt3 = biological target: T3, Sirt3 (Homo sapiens, UniProt Q9NTG7); assay: Fluor-de-Lys peptide deacetylation assay, Sirt3; assay type: biochemical
T3 construct: Sirt3 residues 114-399; His-tag with linker comprising a TEV protease cleavage site (N); made in house; host or cells: E. coli
T3 sequence (Q9NTG7 114-399): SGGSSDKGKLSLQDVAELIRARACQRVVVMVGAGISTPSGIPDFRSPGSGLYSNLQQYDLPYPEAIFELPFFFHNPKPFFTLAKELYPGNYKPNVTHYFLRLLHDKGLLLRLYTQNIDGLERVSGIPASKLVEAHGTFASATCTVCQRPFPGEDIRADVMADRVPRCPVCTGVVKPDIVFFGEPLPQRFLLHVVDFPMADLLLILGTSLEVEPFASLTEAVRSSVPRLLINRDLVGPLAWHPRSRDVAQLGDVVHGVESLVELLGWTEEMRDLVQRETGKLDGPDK
Method in brief: as §1

HEK cells = assay: Cytotoxicity testing on HEK cells
Sirt1 = biological target: T4, Sirt1 (Homo sapiens, UniProt Q96EB6); assay: in vitro activity of Sirt1; assay type: biochemical; settings: concentration of 100 μM
T4 sequence (Q96EB6 1-747): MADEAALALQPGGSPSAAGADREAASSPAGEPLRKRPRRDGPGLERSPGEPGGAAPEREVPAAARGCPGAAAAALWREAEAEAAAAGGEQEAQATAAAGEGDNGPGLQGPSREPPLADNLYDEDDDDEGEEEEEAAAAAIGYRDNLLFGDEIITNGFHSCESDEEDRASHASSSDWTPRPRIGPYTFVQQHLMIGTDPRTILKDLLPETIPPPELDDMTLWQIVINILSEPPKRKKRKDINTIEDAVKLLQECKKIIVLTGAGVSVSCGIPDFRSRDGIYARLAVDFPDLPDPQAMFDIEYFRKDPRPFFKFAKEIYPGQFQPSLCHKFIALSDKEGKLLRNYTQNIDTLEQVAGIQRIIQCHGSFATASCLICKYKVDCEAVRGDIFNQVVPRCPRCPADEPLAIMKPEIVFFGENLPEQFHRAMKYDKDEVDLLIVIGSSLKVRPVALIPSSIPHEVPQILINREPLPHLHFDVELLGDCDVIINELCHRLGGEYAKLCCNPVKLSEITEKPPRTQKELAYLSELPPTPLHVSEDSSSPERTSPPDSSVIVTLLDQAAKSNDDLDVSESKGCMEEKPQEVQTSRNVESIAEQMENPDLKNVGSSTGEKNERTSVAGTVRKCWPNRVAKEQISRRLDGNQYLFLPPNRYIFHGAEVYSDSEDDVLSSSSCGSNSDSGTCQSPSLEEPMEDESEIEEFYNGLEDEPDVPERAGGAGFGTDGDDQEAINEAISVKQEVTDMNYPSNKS

T1 sequence (Q8N6T7 13-308): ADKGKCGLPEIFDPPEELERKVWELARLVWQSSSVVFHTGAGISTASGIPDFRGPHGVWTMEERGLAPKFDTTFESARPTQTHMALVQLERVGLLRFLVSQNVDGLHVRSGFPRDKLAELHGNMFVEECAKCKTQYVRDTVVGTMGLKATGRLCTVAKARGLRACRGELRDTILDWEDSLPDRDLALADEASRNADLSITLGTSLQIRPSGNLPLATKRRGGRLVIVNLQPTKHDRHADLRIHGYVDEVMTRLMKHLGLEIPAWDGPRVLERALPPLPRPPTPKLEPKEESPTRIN

## CC12Cc3cnc(-c4ccccc4)nc3CC1CCC1C2CCC2(C)C1CCC2(C)O (centres unmarked) [CSC13, 1,11a,13a-trimethyl-8-phenyl-2,3,3a,3b,4,5,5a,6,11,11a,11b,12,13,13a-tetradecahydro-1H-cyclopenta[5,6]naphtho[1,2-g]quinazolin-1-ol]
Sirt6
  Effect on the activity of Sirt6: --- (key: inhibition: significant inhibitory effects (>25% loss of activity); ---: no such effect)
Sirt5
  Effect on the activity of Sirt5: --- (key: inhibition: significant inhibitory effects (>25% loss of activity); ---: no such effect)
Sirt3
  Effect on the activity of Sirt3: --- (key: inhibition: significant inhibitory effects (>25% loss of activity); ---: no such effect)
HEK cells
  cytotoxicity: smaller effect
Sirt1
  effect on the in vitro activity of Sirt1: only a weak inhibitory effect
